In paper PMC8301776, “New Hybrid Compounds Combining Fragments of Usnic Acid and Monoterpenoids for Effective Tyrosyl-DNA Phosphodiesterase 1 Inhibition” (Biomolecules, 2021):
Entries after “also recorded” stand apart in the source; their conditions may differ.

Experiments:
Lewis lung carcinoma = conditions: mice with Lewis lung carcinoma; various administration schedules; cited from earlier work
TDP1 = molecular target: T1, TDP1 (Homo sapiens, UniProt Q9NUW8); experiment: Real-time fluorescence detection of TDP1 activity (FAM/BHQ1 oligonucleotide biosensor); assay type: biochemical; conditions: as repeated in Table S1; read-out: IC50
T1 construct: made in house; host or cells: E. coli
T1 sequence (Q9NUW8 whole entry): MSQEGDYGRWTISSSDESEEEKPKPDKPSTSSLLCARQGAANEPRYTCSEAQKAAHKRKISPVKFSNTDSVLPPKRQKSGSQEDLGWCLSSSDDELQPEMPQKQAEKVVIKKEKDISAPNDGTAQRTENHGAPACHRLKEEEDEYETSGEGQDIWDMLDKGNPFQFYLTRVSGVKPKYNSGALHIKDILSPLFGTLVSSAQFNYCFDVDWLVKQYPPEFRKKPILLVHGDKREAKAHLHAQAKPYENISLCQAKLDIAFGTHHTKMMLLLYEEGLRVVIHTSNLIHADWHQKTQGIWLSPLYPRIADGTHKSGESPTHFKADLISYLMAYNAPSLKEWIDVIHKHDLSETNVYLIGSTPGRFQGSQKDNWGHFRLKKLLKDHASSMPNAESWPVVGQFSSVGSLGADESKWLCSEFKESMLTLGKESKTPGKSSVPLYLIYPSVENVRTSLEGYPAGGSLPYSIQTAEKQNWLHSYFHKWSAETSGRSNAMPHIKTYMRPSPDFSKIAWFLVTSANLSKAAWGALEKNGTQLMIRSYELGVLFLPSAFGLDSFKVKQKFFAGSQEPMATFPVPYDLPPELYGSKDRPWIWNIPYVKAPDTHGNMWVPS

HEK293A cells = experiment: Intrinsic cytotoxicity, EZ4U colorimetric test, HEK293A; assay type: cell-based, human; conditions: Figure 6
Protocol: (§1) Cytotoxicity of the compounds was examined against human cell lines HEK293A (human embryonic kidney)—WT and TDP1-deficient (Tdp1-/-), and HeLa (cervical cancer) using an EZ4U colorimetric tests (Biomedica, Vienna, Austria) or xCELLigence DP Real-Time Cell Analyzer (ACEA Biosciences, Santa Clara, CA, USA). Cell lines were obtained from the Russian Cell Culture Collection (RCCC) Institute of Cytology RAS (St. Petersburg, Russia). The cells were grown in DMEM/F12 medium (Thermo Fisher Scientific, Waltham, MA, USA), with 1× GlutaMAX (Thermo Fisher Scientific, Waltham, MA, USA), 50 IU/mL penicillin, and 50 μg/mL streptomycin (Thermo Fisher Scientific, Waltham, MA, USA), and in the presence of 10% fetal bovine serum (Biolot, Saint-Petersburg, Russia) in 5% CO2 atmosphere. Control cells were grown in the presence of 1% DMSO where indicated. After formation of a 30–50% monolayer, tested compounds were added to the medium, and the cell culture was monitored for 3 days. […] The measurements were carried out in three parallel experiments.
(§2) The intrinsic cytotoxicity of the four lead compounds (11a–d) was examined using a colorimetric test (Figure 6).

HeLa cells [1] = experiment: Topotecan cytotoxicity in combination with TDP1 inhibitors, colorimetric test, HeLa; assay type: cell-based, human
Protocol: as §1
The combination index (CI) values were determined for different concentrations of Tpc and the enamines 11a–d at 2 and 5 μM. […] The CI values were calculated with the CompuSyn version 1.0 software. The CI plot at different fraction-affected (Fa) was determined for Tpc (0.3, 0.5, 1, 2, and 4 μM) and the Tdp1 inhibitors (2 and 5 μM).

HEK293A WT cells [2] = experiment: Topotecan cytotoxicity in combination with TDP1 inhibitors, colorimetric test, HEK293A WT; assay type: cell-based, human
Protocol: as §1
There was no difference between WT and the mutant cells.

HEK293A TDP1-/- cells = experiment: Topotecan cytotoxicity alone or in combination, colorimetric test, HEK293A TDP1-/- clones C6, G6, F7; assay type: cell-based, human; conditions: for effect on cell growth in combination with Tpc, compared to Tpc (in words): HEK293A Tdp1-/- cells
Text: TDP1 knockout HEK293A clones were obtained in the same way as the previously described TDP1 knockout HEK293FT clones. Briefly, two 20-nt protospacer sequences flanking the first protein coding exon of human TDP1 gene were selected using https://www.benchling.com/ (accessed date 1 November 2020). Oligonucleotides were cloned in plasmid pSpCas9(BB)-2A-GFP (PX458). pSpCas9(BB)-2A-GFP (PX458) was a gift from Feng Zhang (Addgene plasmid # 48138; http://n2t.net/addgene:48138; RRID: Addgene_48138). HEK293A cells were transfected with plasmids pX458-TDP1-gRNA1 and pX458-TDP1-gRNA2 (0.25 µg of each) using Lipofectamine 3000 Reagent (Thermofisher Scientific, Waltham, MA, USA). Growth medium contained DMEM/F12 (Thermofisher Scientific, Waltham, MA, USA) 1:1, 10% FBS (Thermofisher Scientific, Waltham, MA, USA), 100 U/mL penicillin–streptomycin (Thermofisher Scientific, Waltham, MA, USA), and 1 × GlutaMAX (Thermofisher Scientific, Waltham, MA, USA). […] Single cell clones grew for two weeks, and genome DNA was analyzed on CRISPR/Cas9-mediated deletions in TDP1 gene by PCR amplification of target region with primers: TDP1-scF 5′-[…]-3′ and TDP1-scR 5′-[…]-3′. […]
Cytotoxicity of the compounds was examined against human cell lines HEK293A (human embryonic kidney)—WT and TDP1-deficient (Tdp1-/-), and HeLa (cervical cancer) using an EZ4U colorimetric tests (Biomedica, Vienna, Austria) or xCELLigence DP Real-Time Cell Analyzer (ACEA Biosciences, Santa Clara, CA, USA). […] After formation of a 30–50% monolayer, tested compounds were added to the medium, and the cell culture was monitored for 3 days. […]
In our previous work, the cytotoxic effect of Tpc and the TDP1 inhibitors, monoterpene 3-carene derivatives, was established; both were measured separately and jointly using a panel of HEK293FT TDP1 knockout isogenic clones. […] No cleavage activity was detected in the clones’ C6, G6, and F7 cell extracts in contrast to control WT and purified TDP1. […]

HEK293A WT cells [3] = experiment: xCELLigence impedance-based real-time cell growth assay, alone or with Tpc; set-up: species or system human; conditions: for effect on cell growth with Tpc, compared to Tpc: 50 nM Tpc + 5, 10, 20 or 40 µM compound; for toxicity of compound alone (in words): 40 µM compound
Protocol: as §1
This stimulation was also confirmed for HEK293A WT cells using the xCELLigence DP Real-Time Cell Analyzer impedance-based assay (Figure 9). […] The stimulation effect depends on the concentration of compounds 11a and 11c (Figure 9B,C).
(A). Cell growth of HEK293A cells in the control wells without compounds added (black), with 50 nM Tpc (red), 40 µM 11a (dark green), or 40 µ M 11c (violet). (B,C) Cell growth of HEK293A cells with 50 nM Tpc only (red) and in combination with 5 µM (green), 10 µM (dark blue), 20 µM (pink), or 40 µM (blue) 11a (B) or 11c (C).

HeLa cells [4] = experiment: Intrinsic cytotoxicity, EZ4U colorimetric test, HeLa; assay type: cell-based, human; conditions: Figure 6
Protocol: as §1, §2

Krebs 2 ascites tumors = system: Krebs 2 ascites tumors; set-up: method as in PMID 33871444; conditions: Krebs 2 ascites tumors in mice; cited from earlier work

Row | SMILES | antimetastatic activity (Lewis lung carcinoma) | IC50 (TDP1) [µM] | intrinsic cytotoxicity (in words) (HEK293A cells) | effect on Tpc cytotoxicity (in words) (HeLa cells [1]) | effect on Tpc cytotoxicity / cell growth, compared to Tpc (in words) (HEK293A WT cells [2]) | effect on cell growth in combination with Tpc, compared to Tpc (in words) (HEK293A TDP1-/- cells) | effect on cell growth with Tpc, compared to Tpc (HEK293A WT cells [3]) | toxicity of compound alone (in words) (HEK293A WT cells [3]) | intrinsic cytotoxicity (in words) (HeLa cells [4]) | sensitivity of TDP1-/- cells to Tpc compared to WT (HEK293A TDP1-/- cells; HEK293A clones C6, G6, F7 vs WT, colorimetric test) | antitumor effect, given separately (Krebs 2 ascites tumors)
1 | CC(=O)c1c(O)c(C)c(O)c2c1OC1=CC(=O)/C(=C(/C)NCCCc3cc(C(C)(C)C)c(O)c(C(C)(C)C)c3)C(=O)[C@@]12C [5b] | strong antimetastatic activity |  |  |  |  |  |  |  |  |  | 
2 | CC(=O)c1c(O)c(C)c(O)c2c1OC1=CC(=O)/C(=C(/C)NCC[C@@H](C)CCC=C(C)C)C(=O)[C@@]12C [11a, (2R,4E)-10-Acetyl-4-(1-{[(3S)-3,7-dimethyloct-6-en-1-yl]amino}ethylidene)-11,13-dihydroxy-2,12-dimethyl-8-oxatricyclo[7.4.0.0^2,7]trideca-1(13),6,9,11-tetraene-3,5-dione] |  | 0.4 | non-cytotoxic | enhanced topotecan’s cytotoxicity; also recorded: synergistic effect; also recorded: enhanced Tpc cytotoxicity | reduced it; also recorded: stimulation of cell growth; also recorded: stimulated cell growth | stimulation of cell growth | stimulated cell growth | modestly toxic | non-cytotoxic |  | 
3 | CC(=O)c1c(O)c(C)c(O)c2c1OC1=CC(=O)/C(=C(/C)NCCC3=CC[C@H]4C[C@@H]3C4(C)C)C(=O)[C@@]12C [11c, (2R,4E)-10-Acetyl-4-[1-({2-[(1R,5S)-6,6-dimethylbicyclo[3.1.1]hept-2-en-2-yl]ethyl}amino)ethylidene]-11,13-dihydroxy-2,12-dimethyl-8-oxatricyclo[7.4.0.0^2,7]trideca-1(13),6,9,11-tetraene-3,5-dione] |  | 0.32 | non-cytotoxic | enhanced topotecan’s cytotoxicity; also recorded: synergistic effect; also recorded: enhanced Tpc cytotoxicity | reduced it; also recorded: stimulation of cell growth; also recorded: stimulated cell growth | stimulation of cell growth | stimulated cell growth | non-toxic | non-cytotoxic |  | 
4 | CC[C@@]1(O)C(=O)OCc2c1cc1n(c2=O)Cc2cc3c(CN(C)C)c(O)ccc3nc2-1 [Tpc, topotecan, reference compound] |  |  |  |  |  |  |  |  |  | more sensitive to Tpc compared to WT | antitumor effect
